Entries after “also recorded” stand apart in the source; their conditions may differ. Ends that are not written are not given here.
What was measured:
rat meningeal mast cells = test: Mast cell degranulation in hemi-skull preparations (dura mater, toluidine blue staining, microscopic count); assay type: cell-based, rat (male Sprague-Dawley)
Procedure: Mast cell degranulation was performed as previously described (Pedersen et al., [2015]). In brief, skulls were cut mid-sagittal and the brain halves were removed, leaving the dura mater undisturbed. This was followed by immediate addition of either 350 μl 0.1, 1 or 10 μM PACAP-38 (custom synthesis by Caslo Laboratory ApS, Lyngby, Denmark) or vehicle (saline) in phosphate buffered saline (PBS). After 30 s incubation, the reactions were terminated, and the skulls were fixated in 4% paraformaldehyde in phosphate buffered saline (PBS; Glostrup Hospital Pharmacy, Denmark). The dura mater was dissected from the skull, whole mounted on slides, and mast cells were visualized by staining with 0.1% acidified toluidine blue (Sigma Aldrich, Germany). Tissues were dehydrated in graded alcohols prior to cover slip mounting. The level of mast cell degranulation was evaluated by 400× magnification (Nikon Eclipse Ni microscope) by a researcher blinded to the treatment and was counted in 10 consecutive fields along the stem part of the middle meningeal artery. Mast cells were considered degranulated if an extensive dispersion of more than 10 extruded granules were localized outside the cell or if an extensive loss of staining gave the cell a “ghostly” look.
(§1) Concentration-response curves for both oocytes and dural mast cells were analyzed for overall effects of PACAP-38 and -27 by two-way analyses of variance (ANOVA) followed by Sidak’s test for multiple pairwise comparisons. Effects of PAC1-receptor ligands on mast cell degranulation or on receptor-expressing oocytes were analyzed with a one-way ANOVA followed by Tukey’s multiple comparisons test. The effect of PACAP-38 and PACAP(6–38) on MrgB3-expressing oocytes were analyzed by an unpaired two-tailed t-test. Differences between groups were considered significant when p < 0.05 and data are presented as mean with standard error of the mean (±SEM). GraphPad Prism 7 (GraphPad Prism Software, San Diego, CA, USA) was used for statistical analysis.

[1] = system: PAC1-receptor (Rattus Norvegicus Adcyap1r1 variant 5, null-splice variant); assay type: cell-based
From the text: (§2) DNA of the coding region of Rattus Norvegicus Adcyap1r1 variant 5 (NM_001270582.1) encoding the null-splice variant (short N-terminal and neither exon 14 or 15) of the PAC1-receptor (Vector: EX-Rn10199-M03) was ordered from GeneCopoeia. DNA encoding the RGD1560730 gene (XM_006229262.3, GenScript), was cloned into the pXOOM vector as previously described (Jespersen et al., [2002]). DNA was purified using Plasmid DNA Purification NucleoBond Xtra Midi-kit (Macherey-Nagel). […] Extracted plasmids were linearized down-stream the poly(A) segment using the XhoI restriction enzyme (New England Biolabs, Ipswich, MA, USA). RNA was in vitro transcribed by synthetization from the T7 RNA polymerase promoter using the mMessenger mMachine kit (Ambion) according to manufacturer’s protocol. Messenger RNA was purified using the MEGAclear kit (Ambion). Transcribed RNA integrity was assessed by agarose gel electrophoresis.
(§3) Stage V and VI defolliculated Xenopus laevis oocytes were purchased from EcoCyte Bioscience (Dortmund, Germany) and kept in Kulori medium (90 mM NaCl, 4 mM KCl, 1 mM MgCl2, 1 mM CaCl2, and 5 mM Hepes, pH 7.4). Oocytes were micro-injected with 50 nl mRNA solution containing 30 ng RNA per oocyte and incubated at 19°C. Currents were measured after 2–5 days using a conventional two-electrode-voltage clamp (TEVC). The oocytes were placed in a 200 μl chamber and continuously exposed to a flow of Kulori medium with or without ligands (1 ml/min) while impaled with both a current and a voltage electrode filled with 3 M KCl and connected to an Oocyte Clamp Amplifier [Warner Instruments Corp. (OC-725 B) and a PC-interface (Digidata1440A, Molecular Devices)]. Current amplitude in absence or presence of ligands were analyzed using pClamp 10.2 software (Molecular Devices). All experiments were performed with oocyte membrane voltages constantly clamped to −70 mV and the temperature was kept between 19 and 22°C. In activation experiments, non-responding as well as low-responding (<10 nA) oocytes were excluded from the dataset. Ligands PACAP-38, PACAP-27, PACAP(6–38) were custom synthetized by Caslo (Lyngby, Denmark) while maxadilan was purchased from Bachem (Bubendorf, Switzerland).
as §1

[2] = system: MrgB3-receptor (RGD1560730); test: Two-electrode voltage clamp on MrgB3-receptor-expressing Xenopus laevis oocytes; assay type: cell-based, rat; details: 1–10 μM, holding potential −70 mV
From the text: as §2, §3, §1

[3] = system: PAC1-receptor (Rattus Norvegicus Adcyap1r1 variant 5, null-splice variant); test: Antagonism of PACAP-38-induced currents in PAC1-receptor-expressing oocytes (TEVC); assay type: cell-based
From the text: as §2, with “RNA was in vitro transcribed by synthetization from the T7 RNA polymerase promoter using the mMessenger mMachine kit (Ambion) according to manufacturer’s protocol. Messenger RNA was purified using the MEGAclear kit (Ambion).” left out
Stage V and VI defolliculated Xenopus laevis oocytes were purchased from EcoCyte Bioscience (Dortmund, Germany) and kept in Kulori medium (90 mM NaCl, 4 mM KCl, 1 mM MgCl2, 1 mM CaCl2, and 5 mM Hepes, pH 7.4). […] Currents were measured after 2–5 days using a conventional two-electrode-voltage clamp (TEVC). […] Current amplitude in absence or presence of ligands were analyzed using pClamp 10.2 software (Molecular Devices). […]
Concentration-response curves for both oocytes and dural mast cells were analyzed for overall effects of PACAP-38 and -27 by two-way analyses of variance (ANOVA) followed by Sidak’s test for multiple pairwise comparisons. […]

[4] = system: rat peritoneal mast cells; details: rat peritoneal mast cells; ref Baun et al., 2012; cited from earlier work
From the text: Inspired by clinical findings, we have previously characterized the degranulating effect of various PACAP-analogues on isolated rat peritoneal mast cells. Based on the expectation that degranulation is mediated through the PAC1-receptor, we found an unpredicted order of potency (Baun et al., [2012]).

VPAC1 = details: cited from earlier work
From the text: (§4) Pituitary adenylate cyclase-activating peptide-38 (PACAP-38) is a 38-amino acid neuropeptide located in both sensory and parasympathetic perivascular nerve fibers (Moller et al., [1993]; Mulder et al., [1994]). A C-terminal truncated 27-amino acid (PACAP-27) version is endogenously present as well but is less abundant (Miyata et al., [1990]; Arimura et al., [1991]; Ogi et al., [1993]).

VPAC2 = details: cited from earlier work
From the text: as §4

MrgB3-receptor = details: ref Tatemoto et al., 2006; cited from earlier work
From the text: The exact mechanism of basic secretagogue-mediated mast cell degranulation remains unclear. […] However, this would require the ability of peptides, despite their positive charge, to diffuse across the membrane in order to reach intracellular G-proteins, and as this has not been shown, the hypothesis seems unlikely (Tat ...

migraine patients = details: migraineurs; ref Rahmann et al., 2008; cited from earlier work
From the text: as §4, with “[1993]). […] Degranulation of mast cells can be induced either by an allergen-IgE-dependent mechanism or via an IgE-independent mechanism. The latter mechanism can be activated by a group of molecules known as basic secretagogues.” for “[1993]).”

[5] = system: calcitonin gene-related peptide (CGRP) release from the trigeminal nucleus caudalis; details: ref Jansen-Olesen et al., 2014; cited from earlier work
From the text: Future studies will have to rule out if MrgB3-receptors are involved in PACAP- ...

PAC1-receptor = details: relative to PACAP; ref Miyata et al., 1989, 1990; Harmar et al., 1998; cited from earlier work
From the text: Pituitary adenylate cyclase-activating peptide-38 (PACAP-38) is a 38-amino acid neuropeptide located in both sensory and parasympathetic perivascular nerve fibers (Moller et al., [1993]; Mulder et al., [1994]). A C-terminal truncated 27-amino acid (PACAP-27) version is endogenously present as well but is less abundant (Miyata et al., [1990]; Arimura et al., [1991]; Ogi et al., [1993]). […] At present, three PACAP-receptors have been identified: PA ... || Several different splice variants of the PAC1-receptor have been identified in rats. Splice sites in the extracellular N-terminal domain and the third intracellular loop account for fine tuning of ligand affinity and signal transduction through adenylate cyclase or PLC activation (Deutsch and Sun, [1992]; Spengler et al., [1993]).

VPAC1-receptor = system: VPAC1-receptor; design: method as in Harmar et al., 2012; details: PACAP-38, PACAP-27 and VIP compared; ref Harmar et al., 2012; cited from earlier work
VPAC2-receptor = system: VPAC2-receptor; design: method as in Harmar et al., 2012; details: PACAP-38, PACAP-27 and VIP compared; ref Harmar et al., 2012; cited from earlier work
[6] = ref Spengler et al., 1993, Pantaloni et al., 1996

| Substance | mast cell degranulation (rat meningeal mast cells; 10 μM, Figure 6A, PACAP(6–38) n = 7 (p < 0.0001), PACAP-38 n = 5, mean ± SEM) [%] | mast cell degranulation (result in words) (rat meningeal mast cells; 0.1 to 10 μM, 30 s, rat meningeal mast cells) | current ([1]; 0.1 μM alone, 1 min perfusion, −70 mV, Figure 6B, n = 9, mean ± SEM) [nA] | activation of PAC1-receptor / relative potency (result in words) ([1]; 0.01 to 1 μM, holding potential −70 mV) | activation of MrgB3-receptor (result in words) [2] | inhibition of PACAP-38 induced responses (result in words) ([3]; PACAP(6–38) 0.1 μM together with PACAP-38, one-way ANOVA, Tukey's test) | PACAP-38-induced current in presence of antagonist ([3]; PACAP(6–38) administered together with PACAP-38 in 0.1 μM, −70 mV, n = 10, mean ± SEM, PACAP-38 alone −0.18 ± 0.5 μA) [μA] | peritoneal mast cell degranulation (result in words) [4] | affinity to VPAC1-receptor (result in words) (VPAC1; ref Harmar et al., 2012) | affinity to VPAC2-receptor (result in words) (VPAC2; ref Harmar et al., 2012) | affinity to MrgB3-receptor (result in words) (MrgB3-receptor) | migraine attacks / headache after infusion (result in words) (migraine patients) | release of CGRP from the trigeminal nucleus caudalis (result in words) [5] | binding to the PAC1-receptor, times lower than PACAP (PAC1-receptor) | affinity to VPAC1 relative to PACAP (result in words) (VPAC1; [6]) | affinity to VPAC2 relative to PACAP (result in words) (VPAC2; [6]) | profile on VPAC1-receptor (result in words) (VPAC1-receptor) | profile on VPAC2-receptor (result in words) (VPAC2-receptor) |
| --- | --- | --- | --- | --- | --- | --- | --- | --- | --- | --- | --- | --- | --- | --- | --- | --- | --- | --- |
| Pituitary Adenylate Cyclase Activating Peptide(6–38) (FTDSYSRYRKQMAVKKYLAAVLGKRYKQRVKNK; ends and bridges not checked; UniProt P18509 137-169, looked up, fragment) [PACAP(6–38), PAC1-receptor antagonist, custom synthetized by Caslo] | 93 ± 2 | as potent as PACAP-38; also recorded: potent degranulator of rat meningeal mast cells | −5 ± 6 | unable to induce currents | agonistic effect on MrgB3-receptors expressed in oocytes; also recorded: equipotent to PACAP-38; also recorded: induce a significant current in MrgB3-receptor-expressing oocytes | significantly antagonized; also recorded: significant inhibition of PACAP-38 induced responses | −0.05 ± 0.02 | pronounced mast cell degranulation; also recorded: as potent as PACAP-38 | has not been shown to have an affinity | has not been shown to have an affinity |  |  |  |  |  |  |  |  |
| [D-Trp^7,9,10]-substance P |  |  |  |  |  |  |  |  |  |  | affinity |  |  |  |  |  |  |  |
| vasoactive intestinal peptide [VIP] |  |  |  |  |  |  |  | not PACAP-27 and VIP, caused degranulation; also recorded: weak degranulating effect |  |  |  | only induces a mild headache and no migraine-like attacks in migraineurs; also recorded: does not provoke migraine headache | neither VIP, PACAP-27 nor maxadilan, mediated the release | 1,000 times | equals that of PACAP | equals that of PACAP | equipotent | equipotent |

Reference: PMC6447718, “PACAP-38 and PACAP(6–38) Degranulate Rat Meningeal Mast Cells via the Orphan MrgB3-Receptor” (Frontiers in Cellular Neuroscience, 2019)
